We go through 32 compounds from patent publication US10501438B2, “Aryl-substituted dihydroquinolinones, their preparation and their use as pharmaceuticals” (NEOMED Institute, priority 2015, dated 2019).

In one experiment the test system is human C-Myc transcription in MV-4-11 cells. Kind of experiment: Transcription of human C-Myc in human leukemic MV-4-11 cells (QuantiGene 2.0). It is filed as cell-based. The settings on record: Homo sapiens, MV4-11, 4 h, inhibition of C-Myc mRNA, 4 hours treatment. The method, then:
b) Transcription of Human C-Myc in Human Leukemic MV-4-11 Cells:
The effect of compounds on transcription of human C-Myc gene is monitored in human B-myelomonocytic leukemia cell line MV-4-11 (from American Type Culture Collection (ATCC), Manassas, Va., USA) using QuantiGene 2.0 assay kit (Affymetrix, Santa Clara, Calif., USA).
Typically, 8,000 MV-4-11 cells are plated in sterile 96-well plates (Costar #3598 from Fisher Scientific Canada, Ottawa, Ontario, Canada) in Iscove's medium supplemented with 10% fetal bovine serum, glutamine (2 mM), and penicillin (100 I.U.) and streptomycin (100 μg/mL) (all from Wisent Inc., St. Bruno, Quebec, Canada). Compounds are dissolved in DMSO at 30 mM. A series of 1:3 dilutions are first made in DMSO, and further 1:100 dilutions are made in serum-containing cell culture media. The final concentration of DMSO is 0.1% in cell culture media. After cells are treated with various concentrations of test compound for 4 hours, cells are lysed using Quantigene 2.0 sample processing kit (#QS0100). C-Myc mRNA is detected using a QuantiGene 2.0 assay kit (#QS0009) with gene-specific probe to human C-Myc (#SA-50182) following the manufacturer's recommendations. Luminescene signals are read on Flexstation II microplate reader (Molecular Devices, Sunnyvale, Calif., USA).
In the case of `Cc1cc(-c2cc3c(cc2Cc2ccccn2)NC(=O)CC3)cn(C)c1=O` [Compound 61, 6-(1,5-dimethyl-6-oxo-1,6-dihydropyridin-3-yl)-7-(pyridin-2-ylmethyl)-3,4-dihydroquinolin-2(1H)-one], the IC50 – broadly, the concentration at which inhibition is half-maximal – is 890 nM.
Same read-out and setting: as for `Cc1cc(-c2ccc3c(c2COC2CCCC2)CCC(=O)N3)cn(C)c1=O` [Compound 68, 5-((cyclopentyloxy)methyl)-6-(1,5-dimethyl-6-oxo-1,6-dihydropyridin-3-yl)-3,4-dihydroquinolin-2(1H)-one], the figure is 8560 nM; as for `Cc1ccc(COc2cc(-c3cc(C)c(=O)n(C)c3)cc3c2NC(=O)CC3)nc1` [Compound 75, 6-(1,5-dimethyl-6-oxo-1,6-dihydropyridin-3-yl)-8-((5-methylpyridin-2-yl)methoxy)-3,4-dihydroquinolin-2(1H)-one], 180 nM.
On the same count and under the same terms, as for `Cc1cc(-c2ccc3c(c2Cc2cccc(F)c2)CCC(=O)N3)cn(C)c1=O` [Compound 86, 6-(1,5-dimethyl-6-oxo-1,6-dihydropyridin-3-yl)-5-(3-fluorobenzyl)-3,4-dihydroquinolin-2(1H)-one], the figure is 370 nM; as for `Cc1cc(-c2ccc3c(c2COC2CCC2)NC(=O)CC3)cn(C)c1=O` [Compound 39, 8-(cyclobutoxymethyl)-7-(1,5-dimethyl-6-oxo-1,6-dihydropyridin-3-yl)-3,4-dihydroquinolin-2(1H)-one], 9850 nM; as for `Cc1cc(-c2cc3c(c(NCc4cccnc4)c2)NC(=O)CC3)cn(C)c1=O` [Compound 78, 6-(1,5-dimethyl-6-oxo-1,6-dihydropyridin-3-yl)-8-(pyridyl-3-ylmethylamino)-3,4-dihydro-1H-quinolin-2-one], 100 nM.
Still for that read-out and setting: as for `Cc1cc(-c2cc3c(cc2COC2CCCC2)CCC(=O)N3)cn(C)c1=O` [Compound 34, 6-((cyclopentyloxy)methyl)-7-(1,5-dimethyl-6-oxo-1,6-dihydropyridin-3-yl)-3,4-dihydroquinolin-2(1H)-one], the figure is 2820 nM.
Compound `Cc1cc(-c2cc3c(cc2Cc2cccnc2)NC(=O)CC3)cn(C)c1=O` [Compound 62, 6-(1,5-dimethyl-6-oxo-1,6-dihydropyridin-3-yl)-7-(pyridin-3-ylmethyl)-3,4-dihydroquinolin-2(1H)-one] had an IC50 of 860 nM.
On to `Cc1cc(-c2ccc3c(c2CCc2ccccc2)CCC(=O)N3)cn(C)c1=O` [Compound 96, 6-(1,5-dimethyl-6-oxo-1,6-dihydropyridin-3-yl)-5-phenethyl-3,4-dihydroquinolin-2(1H)-one], for which inhibition was half-maximal at 780 nM (IC50).
Same read-out and setting: as for `Cc1cc(-c2cc3c(c(COC4CCCC4)c2)NC(=O)CC3)cn(C)c1=O` [Compound 21, 8-(cyclopentoxymethyl)-6-(1,5-dimethyl-6-oxo-3-pyridyl)-3,4-dihydro-1H-quinolin-2-one], the figure is 280 nM.
The same measure, in the same setting: the value for `Cc1cc(-c2cc3c(c(OCC4CCCC4)c2)NC(=O)CC3)cn(C)c1=O` [Compound 29, 8-(cyclopentylmethoxy)-6-(1,5-dimethyl-6-oxo-1,6-dihydropyridin-3-yl)-3,4-dihydroquinolin-2(1H)-one] was 190 nM.
Still for that read-out and setting: as for `Cc1cc(-c2cc3c(c(Oc4ccccc4)c2)NC(=O)CC3)cn(C)c1=O` [Compound 15, 6-(1,5-dimethyl-6-oxo-1,6-dihydropyridin-3-yl)-8-phenoxy-3,4-dihydroquinolin-2(1H)-one], the figure is 2620 nM.
In the case of `Cc1cc(-c2cc3c(c(OCC4CCCCO4)c2)NC(=O)CC3)cn(C)c1=O` (centres unmarked) [Compound 55a, 6-(1,5-dimethyl-6-oxo-1,6-dihydropyridin-3-yl)-8-((tetrahydro-2H-pyran-2-yl)methoxy)-3,4-dihydroquinolin-2(1H)-one], the IC50 is 580 nM.
Regarding `Cc1cc(-c2ccc3c(c2Cc2ccccc2C#N)CCC(=O)N3)cn(C)c1=O` [Compound 89, 2-((6-(1,5-dimethyl-6-oxo-1,6-dihydropyridin-3-yl)-2-oxo-1,2,3,4-tetrahydroquinolin-5-yl)methyl)benzonitrile], the midpoint of inhibition, the IC50, lay at 560 nM.
As to `Cc1cc(-c2ccc3c(c2Cc2ccc(C#N)cc2)CCC(=O)N3)cn(C)c1=O` [Compound 87, 4-((6-(1,5-dimethyl-6-oxo-1,6-dihydropyridin-3-yl)-2-oxo-1,2,3,4-tetrahydroquinolin-5-yl)methyl)benzonitrile], the midpoint of inhibition, the IC50, lay at 100 nM.
Same read-out and setting: as for `Cc1cc(-c2ccc3c(c2COC2CCCC2)NC(=O)CC3)cn(C)c1=O` [Compound 38, 8-((cyclopentyloxy)methyl)-7-(1,5-dimethyl-6-oxo-1,6-dihydropyridin-3-yl)-3,4-dihydroquinolin-2(1H)-one], the figure is 540 nM; as for `Cc1cc(-c2ccc3c(c2C(C)c2ccccc2)CCC(=O)N3)cn(C)c1=O` (centres unmarked) [Compound 95, 6-(1,5-dimethyl-6-oxo-1,6-dihydropyridin-3-yl)-5-(1-phenylethyl)-3,4-dihydroquinolin-2(1H)-one], 30 nM; as for `Cc1cc(-c2cc3c(cc2Cc2cccc(F)c2)NC(=O)CC3)cn(C)c1=O` [Compound 85, 6-(1,5-dimethyl-6-oxo-1,6-dihydropyridin-3-yl)-7-(3-fluorobenzyl)-3,4-dihydroquinolin-2(1H)-one], 350 nM.
Compound `Cc1cc(-c2cc3c(c(OCc4ccncc4)c2)NC(=O)CC3)cn(C)c1=O` [Compound 73, 6-(1,5-dimethyl-6-oxo-1,6-dihydropyridin-3-yl)-8-(pyridin-4-ylmethoxy)-3,4-dihydroquinolin-2(1H)-one] had an IC50 of 500 nM.
On the same count and under the same terms, as for `CC(=O)N(Cc1cc(-c2cc(C)c(=O)n(C)c2)cc2c1NC(=O)CC2)C1CCCC1` [Compound 98, N-cyclopentyl-N-((6-(1,5-dimethyl-6-oxo-1,6-dihydropyridin-3-yl)-2-oxo-1,2,3,4-tetrahydroquinolin-8-yl)methyl)acetamide], the figure is 90 nM; as for `Cc1cc(-c2ccc3c(c2Cc2ccccn2)CCC(=O)N3)cn(C)c1=O` [Compound 57, 6-(1,5-dimethyl-6-oxo-1,6-dihydropyridin-3-yl)-5-(pyridin-2-ylmethyl)-3,4-dihydroquinolin-2(1H)-one], 240 nM.
Take `Cc1cc(-c2cc(COC3CCCC3)c3c(c2)NC(=O)CC3)cn(C)c1=O` [Compound 100, 5-((cyclopentyloxy)methyl)-7-(1,5-dimethyl-6-oxo-1,6-dihydropyridin-3-yl)-3,4-dihydroquinolin-2(1H)-one]: the IC50 was determined as 610 nM.
Same read-out and setting: as for `Cc1cc(-c2cc(Cc3ccccc3)c3c(c2)NC(=O)CC3)cn(C)c1=O` [Compound 99, 5-benzyl-7-(1,5-dimethyl-6-oxo-1,6-dihydropyridin-3-yl)-3,4-dihydroquinolin-2(1H)-one], the figure is 840 nM; as for `Cc1cc(-c2cc3c(c(NC(C)c4ccccn4)c2)NC(=O)CC3)cn(C)c1=O` (centres unmarked) [Compound 22, 6-(1,5-dimethyl-6-oxo-3-pyridyl)-8-[1-(2-pyridyl)ethylamino]-3,4-dihydro-1H-quinolin-2-one], 240 nM; as for `Cc1cc(-c2cc3c(c(COCC(F)(F)F)c2)NC(=O)CC3)cn(C)c1=O` [Compound 46, 6-(1,5-dimethyl-6-oxo-1,6-dihydropyridin-3-yl)-8-((2,2,2-trifluoroethoxy)methyl)-3,4-dihydroquinolin-2(1H)-one], 910 nM.
The same measure, in the same setting: as for `Cc1cc(-c2cc3c(c(OCc4cncnc4)c2)NC(=O)CC3)cn(C)c1=O` [Compound 53, 6-(1,5-dimethyl-6-oxo-1,6-dihydropyridin-3-yl)-8-(pyrimidin-5-ylmethoxy)-3,4-dihydroquinolin-2(1H)-one], the figure is 2080 nM; as for `Cc1cc(-c2cc3c(cc2Cc2cccnc2)CCC(=O)N3)cn(C)c1=O` [Compound 101, 7-(1,5-dimethyl-6-oxo-1,6-dihydropyridin-3-yl)-6-(pyridin-3-ylmethyl)-3,4-dihydroquinolin-2(1H)-one], 2680 nM; as for `Cc1cc(-c2ccc3c(c2Cc2cccnc2)CCC(=O)N3)cn(C)c1=O` [Compound 58, 6-(1,5-dimethyl-6-oxo-1,6-dihydropyridin-3-yl)-5-(pyridin-3-ylmethyl)-3,4-dihydroquinolin-2(1H)-one], 250 nM.
As to `Cc1cc(-c2cc3c(c(OCc4cscn4)c2)NC(=O)CC3)cn(C)c1=O` [Compound 82, 6-(1,5-dimethyl-6-oxo-1,6-dihydropyridin-3-yl)-8-(thiazol-4-ylmethoxy)-3,4-dihydroquinolin-2(1H)-one], the IC50 was found to be 250 nM.
On the same count and under the same terms, the value for `Cc1cc(-c2cc3c(c(OCc4cocn4)c2)NC(=O)CC3)cn(C)c1=O` [Compound 84, 6-(1,5-dimethyl-6-oxo-1,6-dihydropyridin-3-yl)-8-(oxazol-4-ylmethoxy)-3,4-dihydroquinolin-2(1H)-one] was 510 nM.

Still in this experiment, the particulars now being: inhibition of C-Myc mRNA, 4 hours treatment.
For `Cc1cc(-c2cc3c(c(OCC4CCCCO4)c2)NC(=O)CC3)cn(C)c1=O` (centres unmarked) [Compound 55b, 6-(1,5-dimethyl-6-oxo-1,6-dihydropyridin-3-yl)-8-((tetrahydro-2H-pyran-2-yl)methoxy)-3,4-dihydroquinolin-2(1H)-one], the IC50 came out at 800 nM.
On the same count and under the same terms, the value for `Cc1cc(-c2cc3c(c(OC(C)c4cccnc4)c2)NC(=O)CC3)cn(C)c1=O` (single isomer, unassigned) [Compound 92a, 6-(1,5-dimethyl-6-oxo-1,6-dihydropyridin-3-yl)-8-(1-(pyridin-3-yl)ethoxy)-3,4-dihydroquinolin-2(1H)-one] was 90 nM.
